# According to patent US20130096070A1, “PEPTIDE TARGETING OF INNER EAR CELLS” (priority 2009, published 2013):
# No end group written: not given here.
# Experiments:
# [1] = system: myosin VII positive hair cells; conditions: mouse, in vivo
# Experimental: Briefly, mice were treated with an injection of neomycin 10^−3 M into the scala tympani. After 5 days animals were re-anesthetized and 1 μl of Ad.math1.11d (108 pu) were delivered via a fenestration in the posterior semicircular canal. After 4 weeks, animals were sacrificed and then processed for myosin VII immunohistochemistry.
# vestibular hair cells = assay: Vestibular hair cell counts after intracochlear neomycin and adenovector atoh1 delivery; conditions: aminoglycoside (neomycin 10^-3 M, 2 μl into inner ear) only, n=5; untreated controls 21.8+2
# Experimental: Characterization of atoh1/math1 effects were as follows. Unilateral vestibular damage was induced by injecting 2 μl of neomycin (10^−3 M) in to the inner ear of mice. After inducing unilateral vestibular dysfunction mice received an intracochlear injection of an advanced generation adenovector carrying atoh1 driven by a human CMV promoter (Admath1.11D) via the round window membrane into the scala tympani. […] After one month recovery, animals were sacrificed and processed for histology. […] Cells were identified by position of the nucleus and every fifth section was counted and expressed as cell number per 100 μm length of neuroepithelium.
# [2] = mouse, in vivo
# Source text: As a screening test for balance function, mice were swim tested by dropping them from a fixed height into an opaque pool of water. […] Animals with impaired vestibular function are known to have to prolonged swim times. Mice were swim tested two months after aminoglycoside ablation followed by no treatment or treatment with Ad math1.11D.
# [3] = system: mouse saccule and utricle cultures; assay: Phage display panning of mouse saccule and utricle cultures, sequencing of colonies; type: binding; conditions: colonies with this sequence among one hundred colonies sequenced after four rounds of panning
# Experimental: C57B1/6 Mice were purchased from Jackson Laboratory (Bar Harbour, Me.). At 8 weeks of age the mice were sacrificed and saccule and utricles were isolated under direct visualization. The cells were cultured in 100 μl DMEM/0.001 M neomycin for 48 hours as is standard. All animal protocols were approved by the University of Kansas animal research advisory committee.
# A phage library (New England Biolabs, Beverly, Mass.) displaying random 7-mer peptides attached to the NH2-terminus of the pIII protein of the filamentous M13 bacteriophage was used for panning with mouse inner ear cells. In round 1 of panning, 2×10^11 plaque-forming units of the phage library in 200 μl of 1×PBS buffer were added to the inner ear cells and were incubated for 4 h at 4° C. with shaking. The cells were washed 10× with Tris-buffered saline/0.1% Tween under direct visualization and the remaining bound phage were eluted for 10 min with 100 μl of 0.2 M glycine-HCl, pH 2.2, and neutralized with 15 μl of 1 M Tris-HCl, pH 9. A 10 μl aliquot was used for tittering and the remaining eluate was used to infect early log phase ER2738 host bacteria in 20 ml LB media and amplified for 4.5 h at 37° C. with shaking. Bacteria were removed by pellet centrifugation 2×10 min at 10,000 g. The supernantant was added to ⅙ quantity 20% (w/v) polyethylene glycol-8000, 2.5 M NaCl. After overnight incubation at 4° C., the phage was pelleted by centrifugation at 15 min at 10,000 g, and resuspended in 200 μl TBS. Amplified phage product was tittered on X-gal/IPTG plates. A 10 μl aliquot from the phage pool was used to titer phage pfu/μl before and after phage amplification in E. coli. In subsequent rounds 2×10^11 plaque-forming units of the amplified phage pool from the previous round were added to mouse inner ear cells and panned was performed as previously described. All panning experiments were performed in duplicate.
# After 4 rounds of panning, isolated colonies were streak plated on X-gal/IPTG plates. Individual colonies were used to infect early log phase ER2738 host bacteria in 4 ml LB media and amplified for 4.5 h at 37° C. The bacteria was pelleted by centrifugation and phage recovered from the supernatant using QIAprep Spin M13 kit (Qiagen, Valencia, Calif.) and resuspended in 50 μl molecular grade water. ssDNA quantity was determined by absorption spectrophotometry. The 7-mer peptide DNA coding regions were sequenced using a −96 gIII sequencing primer (5′-CCCTCATAGTTAGCGTAACG-3′). These sequences were translated and queried on the BLAST protein database (NCBI).
# One hundred colonies were sequenced (Table 1). There were 23 colonies which translated to the peptide sequence t-v-p-q-l-t-t, which was homologous to the protein laminin. Eleven colonies which translated to the peptide sequence s-t-t-k-l-a-l, which was homologous to a sodium/hydrogen exchanger protein. Eight colonies which translated to the peptide sequence m-e-g-y-i-h-r, which was homologous to the protein cathepsin L. Two colonies each that translated to the peptide sequences h-a-i-y-p-r-h, h-s-r-l-l-d-q, i-q-s-p-h-f-f and y-a-a-h-r-s-h, which were homologous to the proteins itchy 3, discs large homolog, protocadherin and myelin transcription factor 1, respectively. The remaining colony sequences occurred only once, however within these sequences, several translated to peptides that had homology to the same protein. For example, a-h-p-h-h-s-m and h-p-h-h-r-i-f both contained the peptide sequence h-p-h-h with homology to mitogen activated protein kinase 8.
# Organ of Corti = assay: Immunohistochemistry identification of phage binding regions in mouse inner ear (Organ of Corti); type: in vivo; conditions: phage 1×10^9 pfu injected into round window of neomycin-treated mice, anti-M13 immunostaining 1 hour after inoculation
# Experimental: (§1) Candidate 7-mer peptide epitopes were selected from the BLAST queried sequences. Colonies were amplified in 20 ml LB media and recovered as previously described. Phage (1×10^9 pfu) were injected into the round window of mice previously treated with 1 μl 0.01 M neomycin injected into the posterior channel 48 hours prior to phage innoculation. Mice were sacrificed by intracardiac perfusion with 4% PBS buffered paraformaldehyde 1 hour after phage inoculation. The temporal bones were isolated and decalcified in Calex (Fisher Scientific, Pittsburgh, Pa.) for 24 hours. The temporal bones were embedded in paraffin and sectioned. Primary antibody directed against the M13 protein (rabbit anti-M13) in 1/100 concentration was added to tissue samples and allowed to incubate for 12 hrs at 4° C. The samples were washed in PBS and incubated with 1/50 concentration fluorescent secondary antibody (goat anti-rabbit, FITC) for 12 hrs at 4° C. After washing, tissue sections were visualized and photographed via fluorescent microscopy.
# To determine the potential for identified peptide sequences to bind […] be purified individual batches of phage and injected them into the perilymph via the round window. The animals were allowed to recover and were then fixed via perfusion. Sections of the inner ear were immunostained for the presence phage to determine if the phage had been able to localize to supporting cells in vivo. […] The most common pattern of distribution that was seen was binding to the basement membrane.
# Macular Organs = assay: Immunohistochemistry identification of phage binding regions in mouse inner ear (Macular Organs); type: in vivo; conditions: phage 1×10^9 pfu injected into round window of neomycin-treated mice, anti-M13 immunostaining 1 hour after inoculation
# Experimental: as §1
# To determine the potential for identified peptide sequences to bind in vitro be purified individual batches of phage and injected them into the perilymph via the round window. The animals were allowed to recover and were then fixed via perfusion. […]
Compound,# of Common Sequences [3],"Phage binding site, Organ of Corti (Organ of Corti)",also measured
"NC[C@@H]1O[C@H](O[C@H]2[C@@H](O)[C@H](O[C@@H]3[C@@H](O)[C@H](N)C[C@H](N)[C@H]3O[C@H]3O[C@H](CN)[C@@H](O)[C@H](O)[C@H]3N)O[C@@H]2CO)[C@H](N)[C@@H](O)[C@@H]1O [aminoglycoside, neomycin]",,,"myosin VII positive cells in macular organs [1]: only occasional myosin VII positive cells; average hair cell counts, serially sectioned saccules (vestibular hair cells): 2.2+2 /100 μm; swim time (time to initiate purposeful swimming) [2]: 22+4.2 seconds"
ALQYHNL [phage pIII NH2 terminal 7 amino acid peptide],1,No binding,
HPHHRIF [phage pIII NH2 terminal 7 amino acid peptide],1,No binding,
HisAlaIleTyrProArgHis (HAIYPRH; printed: HisAlaIleTyrProArgHis) [phage pIII NH2 terminal 7 amino acid peptide],2,,
MPIPRPP [phage pIII NH2 terminal 7 amino acid peptide],1,,
PPRPIPM,,No binding,
ProThrProMeThrLeuTyr,,,"Phage binding site, Macular Organs (Macular Organs): No binding"
SEGRLYK [phage pIII NH2 terminal 7 amino acid peptide],1,No binding,
SNQLLMT [phage pIII NH2 terminal 7 amino acid peptide],1,No binding,
STTKLAL [phage pIII NH2 terminal 7 amino acid peptide],11,No binding,
THQARSV [phage pIII NH2 terminal 7 amino acid peptide],1,No binding,
ahphhsm: phage pIII NH2 terminal 7 amino acid peptide (AHPHHSM),1,,
getrapl,1,,
hsrlldq: phage pIII NH2 terminal 7 amino acid peptide (HSRLLDQ),2,,
iqsphff: phage pIII NH2 terminal 7 amino acid peptide (IQSPHFF),2,,
megyihr: phage pIII NH2 terminal 7 amino acid peptide (MEGYIHR),8,,
tvpqltt: phage pIII NH2 terminal 7 amino acid peptide (TVPQLTT),23,,
yaahrsh: phage pIII NH2 terminal 7 amino acid peptide (YAAHRSH),2,,
